# Results as given in paper PMC6934184, “Selective DNA-PKcs inhibition extends the therapeutic index of localized radiotherapy and chemotherapy” (The Journal of Clinical Investigation, 2019).
# Target: T1, CSNK1D (CK1 delta) (Homo sapiens, UniProt P48730)
# T1 construct: purchased Thermo Fisher Scientific (Life Technologies) SelectScreen
# Experiment: SelectScreen Z'LYTE
# Type: biochemical
# How it was run: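 SelectScreen broad panel; activity (Z'LYTE, Adapta) plus binding formats. ATP: Km app for CSF1R Z'LYTE; 10 for CAMK1 Adapta. Readout = % per kinase.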
# T1 sequence (P48730 whole entry): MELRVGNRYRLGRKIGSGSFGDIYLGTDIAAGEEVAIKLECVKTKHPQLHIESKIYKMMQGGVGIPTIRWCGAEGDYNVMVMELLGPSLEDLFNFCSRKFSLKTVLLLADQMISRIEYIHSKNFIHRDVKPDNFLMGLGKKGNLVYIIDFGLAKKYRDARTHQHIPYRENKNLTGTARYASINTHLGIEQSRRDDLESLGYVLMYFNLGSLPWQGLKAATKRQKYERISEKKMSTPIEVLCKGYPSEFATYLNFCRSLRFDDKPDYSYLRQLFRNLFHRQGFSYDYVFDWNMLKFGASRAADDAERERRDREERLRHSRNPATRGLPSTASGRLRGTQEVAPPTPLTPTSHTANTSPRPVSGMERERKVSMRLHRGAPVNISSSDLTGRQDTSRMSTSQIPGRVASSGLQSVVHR
smiles,measurement,value
CN(C(=O)CN1CCOCC1)c1ccc2sc3c(-c4cccc5c(=O)cc(N6CC7CCC(C6)O7)oc45)cccc3c2c1 [NU5455],inhibition at 1 µM,2.6%
